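Values below derive from 48-hour exposures of cells grown in 96-well plates, with endpoints linearly interpolated between the two concentrations bracketing the appropriate inhibition level. GI50 marks 50% less growth. TGI marks complete inhibition of growth.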
How the values were obtained:
Assay in all cases: inhibition of tumour cell growth, NCI panel, 48 h
CCRF-CEM leukemia = system: CCRF-CEM leukemia
U251 CNS = system: U251 CNS
OVCAR-3 ovarian = system: OVCAR-3 ovarian
NCI-H23 lung = system: NCI-H23 lung
SK-MEL-5 melanoma = system: SK-MEL-5 melanoma
SF-539 CNS = system: SF-539 CNS
MCF7 breast = system: MCF7 breast
NCI/ADR-RES ovarian = system: NCI/ADR-RES ovarian
K-562 leukemia = system: K-562 leukemia
HS 578T breast = system: HS 578T breast
UACC-62 melanoma = system: UACC-62 melanoma
HL-60(TB) leukemia = system: HL-60(TB) leukemia
DU-145 prostate = system: DU-145 prostate
SK-OV-3 ovarian = system: SK-OV-3 ovarian
PC-3 prostate = system: PC-3 prostate
SF-268 CNS = system: SF-268 CNS
IGROV1 ovarian = system: IGROV1 ovarian
OVCAR-8 ovarian = system: OVCAR-8 ovarian
M14 melanoma = system: M14 melanoma
SNB-19 CNS = system: SNB-19 CNS
HT29 colon = system: HT29 colon
HCT-15 colon = system: HCT-15 colon
SK-MEL-2 melanoma = system: SK-MEL-2 melanoma
UO-31 renal = system: UO-31 renal
LOX IMVI melanoma = system: LOX IMVI melanoma
NCI-H226 lung = system: NCI-H226 lung
RXF 393 renal = system: RXF 393 renal
BT-549 breast = system: BT-549 breast
NCI-H460 lung = system: NCI-H460 lung
786-0 renal = system: 786-0 renal
SK-MEL-28 melanoma = system: SK-MEL-28 melanoma
UACC-257 melanoma = system: UACC-257 melanoma
TK-10 renal = system: TK-10 renal
A549 NSCLC = system: A549 NSCLC
NCI-H522 lung = system: NCI-H522 lung
KM12 colon = system: KM12 colon
ACHN renal = system: ACHN renal
SW-620 colon = system: SW-620 colon
MDA-MB-231 breast = system: MDA-MB-231 breast
RPMI-8226 leukemia = system: RPMI-8226 leukemia
MDA-MB-435 = system: MDA-MB-435
HCC-2998 colon = system: HCC-2998 colon
HOP-92 NSCLC = system: HOP-92 NSCLC
SN12C renal = system: SN12C renal
HOP-62 NSCLC = system: HOP-62 NSCLC
CAKI-1 renal = system: CAKI-1 renal
MALME-3M melanoma = system: MALME-3M melanoma
HCT-116 colon = system: HCT-116 colon
T-47D breast = system: T-47D breast
SF-295 CNS = system: SF-295 CNS
OVCAR-5 ovarian = system: OVCAR-5 ovarian
COLO 205 colon = system: COLO 205 colon
A498 renal = system: A498 renal
EKVX NSCLC = system: EKVX NSCLC

Cc1cc(C2CC(O)C(CO)O2)c(Cl)cc1Cl (stereo not drawn)
GI50 (CCRF-CEM leukemia): > 100 µM
TGI (CCRF-CEM leukemia): > 100 µM
GI50 (U251 CNS): > 100 µM
TGI (U251 CNS): > 100 µM
GI50 (OVCAR-3 ovarian): > 100 µM
TGI (OVCAR-3 ovarian): > 100 µM
GI50 (NCI-H23 lung): > 100 µM
TGI (NCI-H23 lung): > 100 µM
GI50 (SK-MEL-5 melanoma): > 100 µM
TGI (SK-MEL-5 melanoma): > 100 µM
GI50 (SF-539 CNS): > 100 µM
TGI (SF-539 CNS): > 100 µM
GI50 (MCF7 breast): > 100 µM
TGI (MCF7 breast): > 100 µM
GI50 (NCI/ADR-RES ovarian): > 100 µM
TGI (NCI/ADR-RES ovarian): > 100 µM
GI50 (K-562 leukemia): > 100 µM
TGI (K-562 leukemia): > 100 µM
GI50 (HS 578T breast): 84.8 µM
TGI (HS 578T breast): > 100 µM
GI50 (UACC-62 melanoma): 39.9 µM
TGI (UACC-62 melanoma): > 100 µM
GI50 (HL-60(TB) leukemia): > 100 µM
TGI (HL-60(TB) leukemia): > 100 µM
GI50 (DU-145 prostate): > 100 µM
TGI (DU-145 prostate): > 100 µM
GI50 (SK-OV-3 ovarian): > 100 µM
TGI (SK-OV-3 ovarian): > 100 µM
GI50 (PC-3 prostate): 77.8 µM
TGI (PC-3 prostate): > 100 µM
GI50 (SF-268 CNS): > 100 µM
TGI (SF-268 CNS): > 100 µM
GI50 (IGROV1 ovarian): 46.3 µM
TGI (IGROV1 ovarian): > 100 µM
GI50 (OVCAR-8 ovarian): > 100 µM
TGI (OVCAR-8 ovarian): > 100 µM
GI50 (M14 melanoma): > 100 µM
TGI (M14 melanoma): > 100 µM
GI50 (SNB-19 CNS): > 100 µM
TGI (SNB-19 CNS): > 100 µM
GI50 (HT29 colon): > 100 µM
TGI (HT29 colon): > 100 µM
GI50 (HCT-15 colon): > 100 µM
TGI (HCT-15 colon): > 100 µM
GI50 (SK-MEL-2 melanoma): > 100 µM
TGI (SK-MEL-2 melanoma): > 100 µM
GI50 (UO-31 renal): > 100 µM
TGI (UO-31 renal): > 100 µM
GI50 (LOX IMVI melanoma): 84.3 µM
TGI (LOX IMVI melanoma): > 100 µM
GI50 (NCI-H226 lung): 56.4 µM
TGI (NCI-H226 lung): > 100 µM
GI50 (RXF 393 renal): > 100 µM
TGI (RXF 393 renal): > 100 µM
GI50 (BT-549 breast): > 100 µM
TGI (BT-549 breast): > 100 µM
GI50 (NCI-H460 lung): > 100 µM
TGI (NCI-H460 lung): > 100 µM
GI50 (786-0 renal): > 100 µM
TGI (786-0 renal): > 100 µM
GI50 (SK-MEL-28 melanoma): > 100 µM
TGI (SK-MEL-28 melanoma): > 100 µM
GI50 (UACC-257 melanoma): > 100 µM
TGI (UACC-257 melanoma): > 100 µM
GI50 (TK-10 renal): > 100 µM
TGI (TK-10 renal): > 100 µM
GI50 (A549 NSCLC): > 100 µM
TGI (A549 NSCLC): > 100 µM
GI50 (NCI-H522 lung): > 100 µM
TGI (NCI-H522 lung): > 100 µM
GI50 (KM12 colon): > 100 µM
TGI (KM12 colon): > 100 µM
GI50 (ACHN renal): > 100 µM
TGI (ACHN renal): > 100 µM
GI50 (SW-620 colon): > 100 µM
TGI (SW-620 colon): > 100 µM
GI50 (MDA-MB-231 breast): 69.5 µM
TGI (MDA-MB-231 breast): > 100 µM
GI50 (RPMI-8226 leukemia): 70.4 µM
TGI (RPMI-8226 leukemia): > 100 µM
GI50 (MDA-MB-435): > 100 µM
TGI (MDA-MB-435): > 100 µM
GI50 (HCC-2998 colon): > 100 µM
TGI (HCC-2998 colon): > 100 µM
GI50 (HOP-92 NSCLC): 89.4 µM
TGI (HOP-92 NSCLC): > 100 µM
GI50 (SN12C renal): > 100 µM
TGI (SN12C renal): > 100 µM
GI50 (HOP-62 NSCLC): > 100 µM
TGI (HOP-62 NSCLC): > 100 µM
GI50 (CAKI-1 renal): > 100 µM
TGI (CAKI-1 renal): > 100 µM
GI50 (MALME-3M melanoma): > 100 µM
TGI (MALME-3M melanoma): > 100 µM
GI50 (HCT-116 colon): > 100 µM
TGI (HCT-116 colon): > 100 µM
GI50 (T-47D breast): > 100 µM
TGI (T-47D breast): > 100 µM
GI50 (SF-295 CNS): > 100 µM
TGI (SF-295 CNS): > 100 µM
GI50 (OVCAR-5 ovarian): > 100 µM
TGI (OVCAR-5 ovarian): > 100 µM
GI50 (COLO 205 colon): > 100 µM
TGI (COLO 205 colon): > 100 µM
GI50 (A498 renal): 58.2 µM
TGI (A498 renal): > 100 µM
GI50 (EKVX NSCLC): 98.4 µM
TGI (EKVX NSCLC): > 100 µM
